ChEMBL document CHEMBL3044713, “Synthesis, characterization, and pharmacological evaluation of new GABA analogs as potent anticonvulsant agents” (Med Chem Res, 2012)
Active and inactive are the calls of the source. The calls are words filed in the database; no cut-off is given here.

Key:
[1] = system: Mus musculus; test: Anticonvulsant activity in ip dosed Mus musculus albino (mouse) assessed as protection against subcutaneous strychnine-induced seizures after 0.5 hr; format: functional; settings: read-out: MED
[2] = system: Mus musculus; test: Anticonvulsant activity in Mus musculus albino (mouse) assessed as protection against subcutaneous strychnine-induced seizures at 300 mg/kg, ip after 4 hr; format: functional, organism-based; set-up: dose 300 mg/kg
[3] = system: Mus musculus; test: Anticonvulsant activity in Mus musculus albino (mouse) assessed as protection against maximal electroshock-induced seizures at 300 mg/kg, ip after 0.5 hr; format: functional, organism-based; set-up: dose 300 mg/kg
[4] = system: Mus musculus; test: Neurotoxicity in Mus musculus albino (mouse) assessed as motor impairment at 300 mg/kg, ip after 4 hr by rotorod test; format: toxicity, organism-based; set-up: dose 300 mg/kg, route intraperitoneal; settings: in vivo
[5] = system: Mus musculus; test: Anticonvulsant activity in Mus musculus albino (mouse) assessed as protection against ip picrotoxin-induced seizures at 300 mg/kg, ip after 0.5 hr; format: functional, organism-based; set-up: dose 300 mg/kg
[6] = system: Mus musculus; test: Anticonvulsant activity in Mus musculus albino (mouse) assessed as protection against subcutaneous pentylenetetrazole-induced seizures at 300 mg/kg, ip after 4 hr; format: functional, organism-based; set-up: dose 300 mg/kg
[7] = system: Mus musculus; test: Neurotoxicity in Mus musculus albino (mouse) assessed as motor impairment at 300 mg/kg, ip after 0.5 hr by rotorod test; format: toxicity, organism-based; set-up: dose 300 mg/kg, route intraperitoneal; settings: in vivo
[8] = system: Mus musculus; test: Anticonvulsant activity in Mus musculus albino (mouse) assessed as protection against subcutaneous pentylenetetrazole-induced seizures at 300 mg/kg, ip after 0.5 hr; format: functional, organism-based; set-up: dose 300 mg/kg
[9] = system: Mus musculus; test: Anticonvulsant activity in Mus musculus albino (mouse) assessed as protection against ip picrotoxin-induced seizures at 300 mg/kg, ip after 4 hr; format: functional, organism-based; set-up: dose 300 mg/kg
[10] = system: Mus musculus; test: Anticonvulsant activity in ip dosed Mus musculus albino (mouse) assessed as protection against ip picrotoxin-induced seizures after 0.5 hr; format: functional; settings: read-out: MED
[11] = system: Mus musculus; test: Anticonvulsant activity in ip dosed Mus musculus albino (mouse) assessed as protection against subcutaneous strychnine-induced seizures after 4 hr; format: functional; settings: read-out: MED
[12] = Neurotoxicity in ip dosed Mus musculus albino (mouse) assessed as motor impairment after 0.5 hr by rotorod test; format: toxicity, organism-based; settings: in vivo
[13] = system: Mus musculus; test: Anticonvulsant activity in ip dosed Mus musculus albino (mouse) assessed as protection against subcutaneous pentylenetetrazole-induced seizures after 4 hr; format: functional; settings: read-out: MED
[14] = system: Mus musculus; test: Anticonvulsant activity in ip dosed Mus musculus albino (mouse) assessed as protection against subcutaneous pentylenetetrazole-induced seizures after 0.5 hr; format: functional; settings: read-out: MED
[15] = system: Mus musculus; test: Anticonvulsant activity in ip dosed Mus musculus albino (mouse) assessed as protection against ip picrotoxin-induced seizures after 4 hr; format: functional; settings: read-out: MED
[16] = Neurotoxicity in ip dosed Mus musculus albino (mouse) assessed as motor impairment after 4 hr by rotorod test; format: toxicity, organism-based; settings: in vivo
[17] = system: Mus musculus; test: Anticonvulsant activity in ip dosed Mus musculus albino (mouse) assessed as protection against maximal electroshock-induced seizures after 0.5 hr; format: functional; settings: read-out: MED
[18] = system: Mus musculus; test: Anticonvulsant activity in Mus musculus albino (mouse) assessed as protection against subcutaneous strychnine-induced seizures at 300 mg/kg, ip after 0.5 hr; format: functional, organism-based; set-up: dose 300 mg/kg

With `O=C(CCCN1C(=O)c2ccccc2C1=O)Nc1ccc(I)cc1` the minimal effective dose [1] was 100 mg/kg, the Activity [2] was “inactive” and the Activity [3] was “inactive”. The Activity [4] was “Non-toxic”, the Activity [5] was “inactive” and the Activity [6] was “inactive”. The Activity [7] was “Non-toxic”, the Activity [8] was “inactive” and the Activity [9] was “inactive”.
With `O=C(CCCN1C(=O)c2ccccc2C1=O)Nc1ccc(Cl)cc1` the minimal effective dose [1] was 100 mg/kg, the Activity [3] was “inactive” and the Activity [4] was “Non-toxic”. The Activity [6] was “inactive”, the minimal effective dose [10] was 300 mg/kg and the Activity [7] was “Non-toxic”. For the same molecule, the minimal effective dose [11] was 300 mg/kg, the Activity [8] was “inactive” and the Activity [9] was “inactive”.
With `O=C(CCCN1C(=O)c2ccccc2C1=O)Nc1ccc(Cl)cc1I` the minimal effective dose [1] was 100 mg/kg, the Activity [2] was “inactive” and the Activity [3] was “inactive”. For the same molecule, the MTD at 0.5 h [12] was 300 mg/kg, the Activity [4] was “Non-toxic” and the Activity [6] was “inactive”. For the same molecule, the minimal effective dose [10] was 300 mg/kg, the Activity [8] was “inactive” and the Activity [9] was “inactive”.
In the case of `Cc1cc(Cl)ccc1NC(=O)CCCN1C(=O)c2ccccc2C1=O`, the minimal effective dose [1] was 300 mg/kg, the minimal effective dose [13] was 300 mg/kg and the Activity [2] was “inactive”. For the same molecule, the minimal effective dose [14] was 100 mg/kg, the Activity [3] was “inactive” and the Activity [4] was “Non-toxic”. For the same molecule, the minimal effective dose [10] was 100 mg/kg, the Activity [7] was “Non-toxic” and the minimal effective dose [15] was 300 mg/kg.
With `O=C(CCCN1C(=O)c2ccccc2C1=O)Nc1ccccc1` the Activity [2] was “inactive”, the MTD at 4 h [16] was 100 mg/kg and the minimal effective dose [17] was 300 mg/kg. The Activity [5] was “inactive”, the Activity [18] was “inactive” and the Activity [6] was “inactive”. The Activity [7] was “Non-toxic”, the Activity [8] was “inactive” and the Activity [9] was “inactive”.
For `O=C(CCCN1C(=O)c2ccccc2C1=O)Nc1ccc(F)cc1`, the minimal effective dose [1] was 300 mg/kg, the Activity [2] was “inactive” and the Activity [3] was “inactive”. For the same molecule, the Activity [4] was “Non-toxic”, the Activity [6] was “inactive” and the minimal effective dose [10] was 300 mg/kg. For the same molecule, the Activity [7] was “Non-toxic”, the Activity [8] was “inactive” and the Activity [9] was “inactive”.
In the case of `COc1ccc(NC(=O)CCCN2C(=O)c3ccccc3C2=O)cc1`, the Activity [2] was “inactive”, the Activity [3] was “inactive” and the Activity [4] was “Non-toxic”. The Activity [18] was “inactive”, the Activity [6] was “inactive” and the minimal effective dose [10] was 300 mg/kg. For the same molecule, the Activity [7] was “Non-toxic”, the Activity [8] was “inactive” and the Activity [9] was “inactive”.
In the case of `CCC1(C)CC(=O)NC1=O` (configuration not stated) [ETHOSUXIMIDE], the Activity [2] was “inactive”, the minimal effective dose [17] was 300 mg/kg and the Activity [4] was “Non-toxic”. For the same molecule, the Activity [5] was “inactive”, the Activity [18] was “inactive” and the Activity [6] was “inactive”. The Activity [7] was “Non-toxic”, the Activity [8] was “inactive” and the Activity [9] was “inactive”.
